Measured values taken from patent US8232293B2, “Crystalline forms of a potent HCV inhibitor” (Boehringer Ingelheim International GmbH, priority 2008, dated 2012).
≈ marks a conversion by molar mass, not a printed value. Structures can show the parent of a compound that is named as a salt. Where two headings read alike, the source gives them in different places.

Experiments:
[1] = Solubility in non-aqueous excipients (excess solid, HPLC of filtrate); format: physicochemical; details: room temperature, rotated up to 4 days; for Solubility in Ethanol: excipient Ethanol; for Solubility in Transcutol P: excipient Transcutol P; for solubility: thermodynamic from solid
Protocol: (§1) The solubility of Compound (1), as either Type A or the sodium salt form, was investigated in various non-aqueous solvents. The solutions were prepared by addition of excess Compound (1) to 0.25 ml to 1.0 ml of excipient in amber screw cap vials with Teflon lined caps. The samples were allowed to rotate at room temperature for up to 4 days. Sampling was done by centrifuging (14,000 rpm on the Eppendorf model 5415C table top centrifuge) and filtering through a 0.45 μm PVDF filter. The filtrate was subject to HPLC analysis for determining the solubility. HPLC analysis was conducted with an Agilent 1100 using gradient or isocratic conditions. Both methods used acetonitrile/water (each with 0.1% Trifluroacetic Acid) and an ACE C-18 stationary phase with column heating maintained at 40-45° C. The wavelength of detection was set at 220 nm or 264 nm. Wet solids were collected and analyzed for form change (stability) by XRPD.

[2] = Form change (stability) study of slurried solids by XRPD; format: physicochemical; details: slurried in either propylene glycol or ethanol, FIG. 5
Protocol: as §1
XRPD analyses for the form change studies were conducted on a Bruker AXS X-Ray Powder Diffractometer Model D8 Discover or D8 Advance, available from Bruker AXS, Inc. of Madison, Wis., using CuKα radiation. The tube power was set to either 40 kV and 40 mA or 40 kV and 30 mA. […]

HCV NS3 serine protease = HCV NS3 serine protease (Hepatitis C virus genotype 1a, UniProt P27958); details: cited from earlier work
HCV NS3 serine protease, sequence (P27958 1658-1711): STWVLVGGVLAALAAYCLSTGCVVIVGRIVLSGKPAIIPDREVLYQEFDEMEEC
HCV NS3 serine protease, sequence (P27958 1027-1657): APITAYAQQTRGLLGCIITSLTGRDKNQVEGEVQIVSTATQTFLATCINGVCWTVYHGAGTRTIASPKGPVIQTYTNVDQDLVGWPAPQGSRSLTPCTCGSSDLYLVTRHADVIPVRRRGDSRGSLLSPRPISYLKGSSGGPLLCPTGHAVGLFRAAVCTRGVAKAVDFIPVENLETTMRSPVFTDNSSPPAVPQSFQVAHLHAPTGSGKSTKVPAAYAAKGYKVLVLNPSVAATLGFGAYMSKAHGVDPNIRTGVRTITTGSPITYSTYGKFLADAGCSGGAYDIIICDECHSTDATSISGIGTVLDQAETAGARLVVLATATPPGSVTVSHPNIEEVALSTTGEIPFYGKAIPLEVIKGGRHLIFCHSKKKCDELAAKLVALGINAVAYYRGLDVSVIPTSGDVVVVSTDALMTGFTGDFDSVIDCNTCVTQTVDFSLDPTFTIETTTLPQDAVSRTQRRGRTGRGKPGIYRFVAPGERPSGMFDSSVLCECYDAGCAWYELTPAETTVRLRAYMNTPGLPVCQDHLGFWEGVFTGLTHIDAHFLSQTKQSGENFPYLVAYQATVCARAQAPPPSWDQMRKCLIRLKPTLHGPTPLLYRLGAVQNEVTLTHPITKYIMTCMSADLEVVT

HCV infection = assay: Human clinical trials in HCV-infected patients; format: in vivo

For `C=C[C@@H]1C[C@]1(NC(=O)[C@@H]1C[C@@H](Oc2cc(-c3csc(NC(=O)C(C)C)n3)nc3c(Br)c(OC)ccc23)CN1C(=O)[C@@H](NC(=O)OC1CCCC1)C(C)(C)C)C(=O)O` [Type A of Compound (1)], the “Solubility in Capmul MCM” value ([1]; excipient Capmul MCM) was 220.6 ± 7.4 mg/mL (≈ 254 mM), the “Solubility in Capmul PG8” value ([1]; excipient Capmul PG8) was 172.6 ± 8.3 mg/mL (≈ 198 mM) and the “Solubility in Ethanol” value [1] was 0.9 ± 0.1 mg/mL (≈ 1.03 mM). For the same compound, the “Solubility in Labrasol” value ([1]; excipient Labrasol) was 146.7 ± 5.1 mg/mL (≈ 169 mM), the “Solubility in PEG 400” value ([1]; excipient PEG 400) was 136.8 ± 3.2 mg/mL (≈ 157 mM) and the “Solubility in Transcutol P” value [1] was 24.3 ± 0.3 mg/mL (≈ 27.9 mM). For the same compound, the “Form stability (change in XRPD pattern of remaining solid)” value ([2]; listed as Type A form of Compound (1)) was “clear form change”.
In the case of `C=C[C@@H]1C[C@]1(NC(=O)[C@@H]1C[C@@H](Oc2cc(-c3csc(NC(=O)C(C)C)n3)nc3c(Br)c(OC)ccc23)CN1C(=O)[C@@H](NC(=O)OC1CCCC1)C(C)(C)C)C(=O)O` [Compound (1)], the “Inhibitory activity against HCV NS3 serine protease” value (HCV NS3 serine protease) is given as “selective and potent inhibitor”.
In the case of `C=C[C@@H]1C[C@]1(NC(=O)[C@@H]1C[C@@H](Oc2cc(-c3csc(NC(=O)C(C)C)n3)nc3c(Br)c(OC)ccc23)CN1C(=O)[C@@H](NC(=O)OC1CCCC1)C(C)(C)C)C(=O)O` [Compound (1) Na salt], the “Effectiveness in treating HCV-infected patients” value (HCV infection) is reported as “demonstrated effectiveness”, the solubility ([1]; Capmul MCM (non-aqueous excipient), oil or lipid, excipient Capmul MCM, read-out: Solubility in Capmul MCM) is reported as 262.5 ± 2.6 mg/mL and the solubility ([1]; Capmul PG8 (non-aqueous excipient), oil or lipid, excipient Capmul PG8, read-out: Solubility in Capmul PG8) is reported as under 169 mg/mL. For the same compound, the solubility ([1]; Labrasol (non-aqueous excipient), oil or lipid, excipient Labrasol, read-out: Solubility in Labrasol) was 175 ± 11.8 mg/mL, the solubility ([1]; PEG 400 (non-aqueous excipient), organic solvent or mixture, excipient PEG 400, read-out: Solubility in PEG 400) was 234 ± 34 mg/mL and the solubility ([1]; Propylene Glycol (non-aqueous excipient), organic solvent or mixture, excipient Propylene Glycol, read-out: Solubility in Propylene Glycol) was over 468 mg/mL. For the same compound, the “Solubility in Ethanol” value [1] was 187.0 ± 23.9 mg/mL, the “Solubility in Transcutol P” value [1] was 430.6 ± 14.7 mg/mL and the “Form stability (change in XRPD pattern of remaining solid)” value ([2]; listed as crystalline sodium salt form of Compound (1)) was “no change in the XRPD pattern”.
